Where a SMILES comes first, the peptide text is derived from it. Where no end group is shown, it is not given here. [ ]: non-standard residue; d: D form. The star is where a group is joined. Nle = CCCC[C@H](N)C(=O)O; Cbz = O=C(OCc1ccccc1)*

For series [1] the following is noted: at 25° C.; cited from earlier work.
Series [2] concerns processing of PGRN into GRNs. The series is described as follows: Protease inhibitor panel, PGRN/GRN levels by immunoblot. It is filed as cell-based, human. The conditions noted are these: HAP1 WT cells, 24 hrs. As for the experimental part:
(§1) Asterisks (*) denote endogenous, intermediate PGRN cleavage products.
Processing of PGRN into GRNs likely involves one or more lysosomal proteases. To narrow down which class of proteases may be responsible for intracellular PGRN metabolism, HAP1 WT cells were treated with a panel of protease inhibitors and measured PGRN/GRN levels by immunoblot. […] One potential candidate lysosomal cysteine protease is cathepsin L, which was reported to cleave mouse PGRN in vitro.
A general note: Immunoblotting shows a protein as a band on a membrane.

For series [3], the target named is cathepsin L (Homo sapiens, UniProt P07711). The series is described as follows: In vitro cleavage of PGRN by recombinant cathepsin L. It is filed as biochemical.
Series [4] has as its system Grn KO MEF cells. The series is described as follows: Rescue of cathepsin-D (CTSD) phenotype in Grn KO MEFs by exogenous protein. It counts as cell-based, mouse. To be noted: PGRN 10 μg/mL or GRN-2 proteins 25 μg/mL, 120 hrs, immunoblot.
Series [5] relates to PGRN KO mouse embryonic fibroblasts (MEFs). The series is described as follows: Uptake of recombinant PGRN and generation of GRNs in PGRN KO MEFs. It is filed as cell-based. The conditions noted are these: 5 or 10 μg/mL, immunoblot. How it is done: PGRN KO MEF cells were treated with recombinant human PGRN (5 or 10 μg/mL) or recombinant mouse PGRN (5 μg/mL) in the media for 24 hrs and lysates were analyzed for PGRN (R&D AF2420) and GRN (Sigma) by immunoblot.
Because this study focused on screening and validating human specific PGRN antibodies, antibodies to detect endogenous mouse GRNs have not been identifies. Nevertheless, to determine if mouse cells are able to process human PGRN into mature GRNs, primary PGRN KO mouse embryonic fibroblasts (MEFs) were treated with recombinant human or mouse PGRN for […]. PGRN/GRN levels were measured in the lysates by immunoblot. […] Next, experiments were performed to determine if human PGRN would be processed into GRNs in mouse brain. Somatic brain transgenesis (SBT) were performed by injecting rAAV2/1 encoding eGFP or human N-TAP PGRN into the cerebral ventricles of newborn (PO) PGRN KO mice. The SBT paradigm leads to transgene expression that is almost exclusively neuronal as assessed by predominant co-localization between eGFP or PGRN (V5) and the neuronal marker NeuN at 3 months of age.

Series [6] concerns processing of PGRN into GRNs. The series is described as follows: Pan-lysosomal inhibitor treatment, PGRN/GRN levels by ELISA and immunoblot. It counts as cell-based, human. The conditions noted are these: HAP1 WT cells, 24 hrs, CQ 50 μM, BafA1 50 nM, ConA 50 nM; for secreted PGRN: conditioned media ELISA; for GRN levels / intracellular PGRN: immunoblot. As for the experimental part:
HAP1 WT cells were treated for 24 hrs with the pan-lysosome inhibitors chloroquine (CQ; 50 μM), bafilomycin A1 (BafA1; 50 nM), or concanamycin A (ConA; 50 nM) and conditioned media was analyzed for secreted PGRN by ELISA.
as §1
Because rapid processing of endocytosed PGRN into GRNs was observed, inhibiting lysosome function could impair GRN production. To determine the effect of pharmacologic lysosome inhibition on GRN levels, HAP1 WT cells were treated with the pan-lysosomal inhibitors chloroquine, bafilomycin A1, or concanamycin A1 for 24 hours and monitored PGRN/GRN levels by immunoblot. These compounds act as lysosome alkalizing agents or inhibitors of the vacuolar-type H+-ATPase (V-ATPase), which is needed for proper lysosome acidification and function. Further, these compounds increase intracellular and secreted PGRN.
On the technique in general: In an ELISA, binding on a coated surface is turned into a signal by an enzyme label.

For series [7], the target named is C-TAP PGRN (UniProt P28799).
Series [8] has as its system processing of PGRN into GRNs. The series is described as follows: Cathepsin L inhibitor II treatment, PGRN/GRN levels by immunoblot. It counts as cell-based, human. The conditions noted are these: HAP1 WT cells, increasing concentrations, 40 hrs.
Text: as §1

Series [9] deals with HAP1 PGRN KO cells. The series is described as follows: Uptake and processing of C-TAP or N-TAP PGRN into GRNs (immunoblot). It is filed as cell-based, human. The conditions noted are these: 5 μg/mL, 24 hrs, compared to N-TAP PGRN. How it is done: HAP1 PGRN KO cells were treated with C-TAP PGRN or N-TAP PGRN (5 μg/mL) for 24 hrs and […] lysates were analyzed for PGRN and GRN by immunoblot.
PGRN levels have been linked to expression of several genes including SORT1, encoding the membrane receptor sortilin, and TMEM106B, encoding the transmembrane protein 106B (TMEM106B). Thus, altered expression of these proteins could affect the production of intracellular GRNs as well. To address this, experiments were performed to determine if expression of sortilin, which facilitates endocytosis and trafficking of PGRN to the lysosome, influences GRN levels. PGRN KO cells were treated with PGRN tagged at either the C-terminus (C-TAP), which disrupts sortilin binding or the N-terminus (N-TAP), which preserves sortilin binding, and measured intracellular PGRN and GRN by immunoblot. […] Next, HAP1 SORT1 KO cells were generated using CRISPR/Cas9 technology. […] Thus, disruption of the SORT1/PGRN axis alters intracellular PGRN trafficking and leads to decreased GRN production.

Sequence of cathepsin L (P07711 114-333, species assumed): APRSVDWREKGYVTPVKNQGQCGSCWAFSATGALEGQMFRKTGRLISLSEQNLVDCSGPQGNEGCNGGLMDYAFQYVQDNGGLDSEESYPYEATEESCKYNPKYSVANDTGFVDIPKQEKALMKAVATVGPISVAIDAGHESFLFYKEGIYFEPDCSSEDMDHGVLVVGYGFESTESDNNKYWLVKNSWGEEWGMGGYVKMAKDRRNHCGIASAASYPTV

In the case of `CCCCCCCC` [octane], the “percent solubility in water by weight” value in series [1] is 0.63×10^−4 % w/w.
For the molecule `CCCC[C@@H](C=O)NC(=O)[C@H](CC(C)C)NC(=O)[C@H](CC(C)C)NC(C)=O` [ALLN] (Ac-Leu-Leu-[Nle]-aldehyde), the “GRN levels compared to vehicle treated control” value in series [2] is recorded as “reduced GRN levels”.
Regarding “recombinant human PGRN: recombinant full-length human progranulin protein (C-TAP PGRN in the cathepsin L cleavage)”, the “GRNs generated by in vitro cleavage with cathepsin L” value in series [3] (2 hrs, immunoblot) is “generated multiple, mature GRNs including GRN-2, -3, and -4”. For the same molecule, the “full-length PGRN on incubation with cathepsin L” value in series [3] (with corresponding increase of GRN protein) is reported as “time-dependent decrease”. In addition, the “CTSD phenotype (total mature CTSD levels)” value in [4] is on record as “can be rescued”. In series [5], the “endocytosis of PGRN and generation of mature human GRNs” value (“endocytosis … of mature human GRNs” for short) was “efficiently endocytosed”.
In the case of `C/C=C/[C@H]1O[C@@](O)([C@@H](C)[C@H](O)[C@H](C)[C@H]2OC(=O)/C(OC)=C/C(C)=C/[C@@H](C)[C@@H](O)[C@@H](CC)[C@@H](O)[C@H](C)C/C(C)=C/C=C/[C@@H]2OC)C[C@@H](O[C@H]2C[C@@H](O)[C@H](OC(N)=O)[C@@H](C)O2)[C@@H]1C` [concanamycin A1, concanamycin A], in series [6], the “secreted PGRN” value was “significantly increased”, the GRN levels entry is on record as “significantly decreased” and the “intracellular PGRN” value is reported as “significantly increased”.
As for “N-TAP PGRN: full-length human PGRN with twin Strep tag and V5 epitope after the signal sequence; preserves sortilin binding”, in series [5], the “endocytosis … of mature human GRNs” value is on record as “equally well”.
Consider recombinant cathepsin L, for which the “in vitro cleavage of PGRN (immunoblot)” value in series [7] is “Incubation of cathepsin L and recombinant human PGRN lead to the time-dependent decrease of full-length PGRN and a corresponding increase of GRN protein”.
Regarding `O=C[C@H](Cc1ccc(O)cc1)NC(=O)[C@H](Cc1ccccc1)NC(=O)OCc1ccccc1` [cathepsin L inhibitor II, Z-FY-CHO] (Cbz-Phe-Tyr-aldehyde), in series [8], the “endogenous PGRN” value is “modestly increased” and the “production of GRN” value was “significantly decreasing”.
Take `CC(NC(=O)[C@H](Cc1ccccc1)NC(=O)OCc1ccccc1)C(=O)CF` (stereo partly drawn) [Z-FA-fmk]: the “GRN levels compared to vehicle treated control” value in series [2] is “reduced GRN levels”.
On the same count and under the same terms, next, `CC(=O)N[C@@H](CC(C)C)C(=O)N[C@@H](CC(C)C)C(=O)N[C@H](C=O)CCCNC(=N)N` [leupeptin]: “reduced GRN levels”.
Consider “GRN-2: recombinant human granulin-2 protein, SEQ ID NO: 21, with twin Strep-tag (AIQCPDSQFECPDFSTCCVMVDGSWGCCPMPQASCCEDRVHCCPHGAFCDLVHTRCIT; cysteine pairing not given here; also: twin Strep-tag (position not given here))”, for which the “CTSD phenotype (total mature CTSD levels)” value in series [4] is recorded as “rescues the CTSD phenotype”.
`CCN(CC)CCCC(C)Nc1ccnc2cc(Cl)ccc12` (stereo not drawn) [chloroquine]: in series [6], the “secreted PGRN” value is given as “significantly increased”, the GRN levels entry is reported as “significantly decreased” and the “intracellular PGRN” value is listed as “significantly increased”.
Turning to `CO/C1=C\C(C)=C\[C@@H](C)[C@@H](O)[C@@H](C)C/C(C)=C/C=C/[C@H](OC)[C@@H]([C@@H](C)[C@@H](O)[C@H](C)[C@@]2(O)C[C@@H](O)[C@H](C)[C@@H](C(C)C)O2)OC1=O` [bafilomycin A1], in [6], the “secreted PGRN” value is reported as “significantly increased”, the GRN levels entry is “significantly decreased” and the “intracellular PGRN” value is “significantly increased”.

B1: C-TAP PGRN: full-length human PGRN with C-terminal twin-Strep tag followed by FLAG epitope; disrupts sortilin binding (protein)
chain: TRCPDGQFCPVACCLDPGGASYSCCRPLLDKWPTTLSRHLGGPCQVDAHCSAGHSCIFTVSGTSSCCPFPEAVACGDGHHCCPRGFHCSADGRSCFQRSGNNSVGAIQCPDSQFECPDFSTCCVMVDGSWGCCPMPQASCCEDRVHCCPHGAFCDLVHTRCITPTGTHPLAKKLPAQRTNRAVALSSSVMCPDARSRCPDGSTCCELPSGKYGCCPMPNATCCSDHLHCCPQDTVCDLIQSKCLSKENATTDLLTKLPAHTVGDVKCDMEVSCPDGYTCCRLQSGAWGCCPFTQAVCCEDHIHCCPAGFTCDTQKGTCEQGPHQVPWMEKAPAHLSLPDPQALKRDVPCDNVSSCPSSDTCCQLTSGEWGCCPIPEAVCCSDHQHCCPQGYTCVAEGQCQRGSEIVAGLEKMPARRASLSHPRDIGCDQHTSCPVGQTCCPSLGGSWACCQLPHAVCCEDRQHCCPAGYTCNVKARSCEKEVVSAQPATFLARSPHVGVKDVECGEGHFCHDNQTCCRDNRQGWACCPYRQGVCCADRRHCCPAGFRCAARGTKCLRREAPRWDAPLRDPALRQLL
modifications: left off: small tags and cut ends
For B1, the “endocytosis and processing into GRNs” value in series [9] was “not efficiently endocytosed and processed into GRNs”. In addition, in [5], the “endocytosis … of mature human GRNs” value is “equally well”.

Values taken from US20240002459A1, “Granulin Compositions and Uses Related Thereto” (Emory University, priority 2016, published 2024).
